Experimental data from patent US20250215039A1, “NUCLEOSIDES FOR TREATING CANCER” (PRIMEFOUR THERAPEUTICS, INC., priority 2022, published 2025).
Read-outs that look alike come from different tables or passages of the source.

System: cancer cell lines
Assay: Cancer cell proliferation activity (CellTiterGlo, 72 h)
Assay type: cell-based
Details: 72 h, 72 h, read-out: IC50
Description: Dose response relationships on cell proliferation was assessed for representative Compounds of the Disclosure on cancer cell lines. Briefly, compound treatment of cells started one day after seeding with a final DMSO concentration of 0.1%, and was performed by nanodrop-dispensing using a Tecan Dispenser. 0.1% DMSO (solvent) and Staurosporine (10 μM) served as high control (100% viability) and low control (0% viability), respectively.
Cells were cultured in the appropriate media. For the assays, cells were seeded in white cell culture-treated flat and clear bottom multiwell plates and incubated at 37° C. overnight before compound was added. After incubation for 72 h at 37° C. at 5% or 10% CO2 dependent on the medium, cell plates were equilibrated to room temperature for one hour, CellTiterGlo reagent (Promega) was added and luminescence was measured approximately an hour later using a luminometer.
Raw data were converted into percent cell viability relative to the high and low control, which were set to 100% and 0%, respectively.
The IC50 values are summarized in Tables 9A-1, Table 10A, and Table 10B.

In the case of CC[C@]1(CO)O[C@@H](n2cc(F)c(N)nc2=O)C[C@@H]1O [Cpd. No. 2, 4-amino-1-((2R,4S,5R)-5-ethyl-4-hydroxy-5-(hydroxymethyl)tetrahydrofuran-2-yl)-5-fluoropyrimidin-2(1H)-one], the IC50 (5637 cell line (bladder)) is reported as 8.67 µM, the IC50 (CLS439 cell line (bladder)) is reported as > 50 µM and the IC50 (HS729 cell line (muscle)) is reported as > 50 µM. For the same molecule, the IC50 (JAR cell line (placenta)) was > 50 µM, the IC50 (U20S cell line, bone) was > 50 µM and the IC50 (Homo sapiens, 22Rv1, 72 h, 22RV1 cell line (prostate)) was > 50 µM. For the same molecule, the IC50 (Homo sapiens, 786-0, 72 h, 786O cell line (kidney)) was > 50 µM, the IC50 (Homo sapiens, A204, 72 h, A204 cell line (muscle)) was 1 µM and the IC50 (Homo sapiens, A549, 72 h, A549 cell line, lung) was > 50 µM. For the same molecule, the IC50 (Homo sapiens, A673, 72 h, A673 cell line (bone)) was > 50 µM, the IC50 (Homo sapiens, A2780, 72 h, A2780 cell line (ovary)) was > 50 µM and the IC50 (Homo sapiens, A-375, 72 h, A375 cell line (skin)) was > 50 µM. For the same molecule, the IC50 (Homo sapiens, A-431, 72 h, A431 cell line (skin)) was > 50 µM, the IC50 (Homo sapiens, ACHN, ACHN cell line (kidney)) was 3.2 µM and the IC50 (Homo sapiens, ASPC1, 72 h, ASPC1 cell line (pancreas)) was > 50 µM. The IC50 (Homo sapiens, BT-20, 72 h, BT20 cell line (breast)) was > 50 µM, the IC50 (Homo sapiens, BXPC-3, 72 h, BXPC3 cell line (pancreas)) was > 50 µM and the IC50 (Homo sapiens, C-33-A, C33A cell line, endometrial) was 4.92 µM. The IC50 (Homo sapiens, CAKI-1, 72 h, CAKI1 cell line (kidney)) was 1.36 µM, the IC50 (Homo sapiens, COLO 205, 72 h, COLO205 cell line (colon)) was > 50 µM and the IC50 (Homo sapiens, COLO-678, 72 h, COLO678 cell line (colon)) was > 50 µM. For the same molecule, the IC50 (Homo sapiens, Ca-Ski, CASKI cell line, endometrial) was > 50 µM, the IC50 (Homo sapiens, Caco-2, 72 h, CACO2 cell line (colon)) was > 50 µM and the IC50 (Homo sapiens, Calu-6, 72 h, CALU6 cell line (lung)) was > 50 µM. The IC50 (Homo sapiens, DLD-1, 72 h, DLD1 cell line (colon)) was > 50 µM, the IC50 (Homo sapiens, DU-145, 72 h, DU145 cell line (prostate)) was > 50 µM and the IC50 (Homo sapiens, EFO-21, 72 h, EFO21 cell line (ovary)) was > 50 µM. For the same molecule, the IC50 (Homo sapiens, EJ-28, 72 h, EJ28 cell line (bladder)) was > 50 µM, the IC50 (Homo sapiens, Granta-519, 72 h, GRANTA-519 cell line (hematological)) was 1.12 µM and the IC50 (Homo sapiens, HCT-15, 72 h, HCT15 cell line (colon)) was > 50 µM. The IC50 (Homo sapiens, HCT-116, 72 h, HCT116 cell line (colon)) was > 50 µM, the IC50 (Homo sapiens, HEK293, 72 h, HEK293 cell line (kidney)) was > 50 µM and the IC50 (Homo sapiens, HL-60, 72 h, HL-60 cell line (hematological)) was > 50 µM. For the same molecule, the IC50 (Homo sapiens, HT-29, 72 h, HT29 cell line (colon)) was > 50 µM, the IC50 (Homo sapiens, HT-1080, 72 h, HT1080 cell line (connective tissue)) was > 50 µM and the IC50 (Homo sapiens, HeLa, HELA cell line, endometrial) was > 50 µM. For the same molecule, the IC50 (Homo sapiens, HepG2, 72 h, HEPG2 cell line (liver)) was > 50 µM, the IC50 (Homo sapiens, Hs-578T, HS578T cell line, breast) was > 50 µM and the IC50 (Homo sapiens, IGROV-1, 72 h, IGROV1 cell line (ovary)) was > 50 µM. For the same molecule, the IC50 (Homo sapiens, IMR-90, 72 h, IMR90 cell line, lung) was > 50 µM, the IC50 (Homo sapiens, J82, 72 h, J82 cell line (bladder)) was > 50 µM and the IC50 (Homo sapiens, JEG-3, 72 h, JEG3 cell line (placenta)) was > 50 µM. The IC50 (Homo sapiens, JIMT-1, 72 h, JIMT1 cell line (breast)) was > 50 µM, the IC50 (Homo sapiens, K562, 72 h, K-562 cell line (hematological)) was > 50 µM and the IC50 (Homo sapiens, Kasumi 1, 72 h, KASUMI-1 cell line (hematological)) was > 50 µM. The IC50 (Homo sapiens, L-363, 72 h, L-363 cell line (hematological)) was > 50 µM, the IC50 (Homo sapiens, LoVo, LOVO cell line (colon)) was > 50 µM and the IC50 (Homo sapiens, MCF7, 72 h, MCF7 cell line (breast)) was > 50 µM. The IC50 (Homo sapiens, MDA-MB-231, 72 h, MDAMB231 cell line (breast)) was > 50 µM, the IC50 (Homo sapiens, MDA-MB-435, 72 h, MDAMB435 cell line (skin)) was > 50 µM and the IC50 (Homo sapiens, MDA-MB-436, 72 h, MDAMB436 cell line (breast)) was > 50 µM. For the same molecule, the IC50 (Homo sapiens, MDA-MB-468, 72 h, MDAMB468 cell line (breast)) was > 50 µM, the IC50 (Homo sapiens, MG-63, 72 h, MG63 cell line (bone)) was > 50 µM and the IC50 (Homo sapiens, MHH-ES-1, 72 h, MHHES1 cell line (bone)) was > 50 µM. The IC50 (Homo sapiens, MIA PaCa-2, 72 h, MIAPACA2 cell line (pancreas)) was > 50 µM, the IC50 (Homo sapiens, MINO, MINO cell line (hematological)) was 0.25 µM and the IC50 (Homo sapiens, MV4-11, 72 h, MV4-11 cell line (hematological)) was 3.4 µM. For the same molecule, the IC50 (Homo sapiens, NCI-H23, 72 h, NCI-H23 cell line (lung)) was > 50 µM, the IC50 (Homo sapiens, NCI-H82, 72 h, NCIH82 cell line (lung)) was > 50 µM and the IC50 (Homo sapiens, NCI-H292, 72 h, NCIH292 cell line (lung)) was > 50 µM. The IC50 (Homo sapiens, NCI-H460, 72 h, NCIH460 cell line (lung)) was 5.15 µM, the IC50 (Homo sapiens, OVCAR-3, 72 h, OVCAR3 cell line (ovary)) was > 50 µM and the IC50 (Homo sapiens, OVCAR-4, 72 h, OVCAR4 cell line (ovary)) was > 50 µM. The IC50 (Homo sapiens, PANC-1, 72 h, PANC1 cell line (pancreas)) was > 50 µM, the IC50 (Homo sapiens, PC-3, 72 h, PC3 cell line (prostate)) was > 50 µM and the IC50 (Homo sapiens, PLC-PRF-5, 72 h, PLCPRF5 cell line (liver)) was > 50 µM. For the same molecule, the IC50 (Homo sapiens, Panc1005, 72 h, PANC1005 cell line (pancreas)) was > 50 µM, the IC50 (Homo sapiens, RD, RD cell line (muscle)) was > 50 µM and the IC50 (Homo sapiens, Ramos, RAMOS cell line (hematological)) was 1.77 µM. For the same molecule, the IC50 (Homo sapiens, SAOS-2, 72 h, SAOS2 cell line (bone)) was > 50 µM, the IC50 (Homo sapiens, SF-268, 72 h, SF268 cell line (brain)) was > 50 µM and the IC50 (Homo sapiens, SF-295, 72 h, SF295 cell line (brain)) was > 50 µM. The IC50 (Homo sapiens, SK-BR-3, 72 h, SKBR3 cell line (breast)) was 17 µM, the IC50 (Homo sapiens, SK-HEP1, 72 h, SKHEP1 cell line (liver)) was > 50 µM and the IC50 (Homo sapiens, SK-LMS-1, 72 h, SKLMS1 cell line (uterus)) was > 50 µM. For the same molecule, the IC50 (Homo sapiens, SK-MEL-5, 72 h, SKMEL5 cell line, skin) was > 50 µM, the IC50 (Homo sapiens, SK-MEL-28, 72 h, SKMEL28 cell line (skin)) was > 50 µM and the IC50 (Homo sapiens, SK-N-AS, SKNAS cell line (brain)) was > 50 µM. The IC50 (Homo sapiens, SK-N-SH, SKNSH cell line (brain)) was > 50 µM, the IC50 (Homo sapiens, SK-OV-3, 72 h, SKOV3 cell line (ovary)) was > 50 µM and the IC50 (Homo sapiens, SNB-75, 72 h, SNB75 cell line (brain)) was > 50 µM. The IC50 (Homo sapiens, SU-DHL10, 72 h, SU-DHL-10 cell line (hematological)) was 1.97 µM, the IC50 (Homo sapiens, SU-DHL-6, 72 h, SU-DHL-6 cell line (hematological)) was > 50 µM and the IC50 (Homo sapiens, SW-620, 72 h, SW620 cell line (colon)) was > 50 µM. The IC50 (Homo sapiens, T-24, 72 h, T24 cell line (bladder)) was > 50 µM, the IC50 (Homo sapiens, TE-671, 72 h, TE671 cell line (muscle)) was > 50 µM and the IC50 (Homo sapiens, THP-1, 72 h, THP-1 cell line (hematological)) was > 50 µM. For the same molecule, the IC50 (Homo sapiens, U-87 MG, U87MG cell line (brain)) was > 50 µM, the IC50 (Homo sapiens, UMUC3, 72 h, UMUC3 cell line (bladder)) was > 50 µM and the IC50 (Homo sapiens, UO-31, 72 h, UO31 cell line (kidney)) was > 50 µM. For the same molecule, the IC50 (Homo sapiens, WSU-NHL, WSU-NHL cell line (hematological)) was 2.5 µM, the IC50 (MT-3, 72 h, MT3 cell line (breast)) was > 50 µM and the IC50 (NCI-H358M, NCIH358M cell line (lung)) was > 50 µM. For the same molecule, the IC50 (PBMC, PBMC (hematological)) was > 50 µM and the IC50 (RD-ES, RDES cell line (bone)) was > 50 µM.
